Measurements taken from ChEMBL document CHEMBL4665835, “Synthesis and pharmacological evaluation of 11-(1,6-dimethyl-1,2,3,6-tetrahydropyridin-4-yl)-5H-dibenzo[b,e][1,4]diazepines with clozapine-like receptor occupancy at dopamine D/D receptor” (Bioorg Med Chem Lett, 2020).

How the values were obtained:
[1] = molecular target: Voltage-gated inwardly rectifying potassium channel KCNH2 (Homo sapiens, UniProt Q12809); experiment: Inhibition of human ERG
[2] = Drug metabolism in human hepatocyte microsome fraction assessed as GSH conjugate formation by LC-MS/MS analysis; format: ADME; settings: microsomes
D(1A) dopamine receptor [3] = molecular target: T1, D(1A) dopamine receptor (Homo sapiens, UniProt P21728); experiment: Binding affinity to human dopamine D1 receptor
D(2) dopamine receptor = D(2) dopamine receptor (Homo sapiens, UniProt P14416)
Description: Binding affinity to human dopamine D2 receptor

[4] = In vivo receptor occupancy at human dopamine D2 receptor in schizophrenia patient brain at 10 mCi, iv by PET scanning; format: functional
[5] = In vivo receptor occupancy at human dopamine D1 receptor in schizophrenia patient brain at 10 mCi, iv by PET scanning; format: functional
[6] = In vivo receptor occupancy at dopamine D1 receptor in sc dosed rat brain by measuring free plasma concentration pretreated for 1 hr in presence of SCH-23390 by LC-MS/MS analysis; format: functional
[7] = In vivo receptor occupancy at dopamine D1 receptor in sc dosed rat brain by measuring free plasma concentration pretreated for 1 hr in presence of raclopride by LC-MS/MS analysis; format: functional
[8] = molecular target: 5-hydroxytryptamine receptor 2A (Homo sapiens, UniProt P28223); experiment: Binding affinity to human 5HT2A receptor
D(1A) dopamine receptor [9] = molecular target: T1, D(1A) dopamine receptor; experiment: Potency index, ratio of Clozapine Ki to compound Ki for binding affinity to human dopamine D1 receptor

5-hydroxytryptamine receptor 2A, sequence (P28223 whole entry): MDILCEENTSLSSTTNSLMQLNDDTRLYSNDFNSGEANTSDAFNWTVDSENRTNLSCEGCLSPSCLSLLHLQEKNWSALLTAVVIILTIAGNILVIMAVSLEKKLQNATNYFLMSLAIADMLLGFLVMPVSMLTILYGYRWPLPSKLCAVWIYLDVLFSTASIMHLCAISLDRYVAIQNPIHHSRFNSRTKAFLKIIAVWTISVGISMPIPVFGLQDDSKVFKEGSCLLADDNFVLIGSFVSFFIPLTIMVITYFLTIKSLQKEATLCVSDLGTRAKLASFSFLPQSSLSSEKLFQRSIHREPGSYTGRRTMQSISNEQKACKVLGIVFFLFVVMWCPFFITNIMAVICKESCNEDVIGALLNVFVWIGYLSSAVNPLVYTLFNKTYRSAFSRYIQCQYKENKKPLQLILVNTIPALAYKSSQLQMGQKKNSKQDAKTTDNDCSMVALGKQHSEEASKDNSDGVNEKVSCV
T1 sequence (P21728 whole entry): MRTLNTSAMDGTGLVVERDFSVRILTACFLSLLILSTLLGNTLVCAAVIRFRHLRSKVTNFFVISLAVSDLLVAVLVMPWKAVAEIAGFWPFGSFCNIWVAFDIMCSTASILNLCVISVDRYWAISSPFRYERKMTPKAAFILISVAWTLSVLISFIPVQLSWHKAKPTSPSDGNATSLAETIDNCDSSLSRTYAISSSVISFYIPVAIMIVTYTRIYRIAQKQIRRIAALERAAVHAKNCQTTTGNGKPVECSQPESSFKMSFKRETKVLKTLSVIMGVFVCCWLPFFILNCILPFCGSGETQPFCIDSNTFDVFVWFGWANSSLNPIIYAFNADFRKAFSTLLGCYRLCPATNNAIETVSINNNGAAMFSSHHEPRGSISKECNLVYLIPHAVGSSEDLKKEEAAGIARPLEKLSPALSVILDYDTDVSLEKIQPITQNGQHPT
Voltage-gated inwardly rectifying potassium channel KCNH2, sequence (Q12809 whole entry): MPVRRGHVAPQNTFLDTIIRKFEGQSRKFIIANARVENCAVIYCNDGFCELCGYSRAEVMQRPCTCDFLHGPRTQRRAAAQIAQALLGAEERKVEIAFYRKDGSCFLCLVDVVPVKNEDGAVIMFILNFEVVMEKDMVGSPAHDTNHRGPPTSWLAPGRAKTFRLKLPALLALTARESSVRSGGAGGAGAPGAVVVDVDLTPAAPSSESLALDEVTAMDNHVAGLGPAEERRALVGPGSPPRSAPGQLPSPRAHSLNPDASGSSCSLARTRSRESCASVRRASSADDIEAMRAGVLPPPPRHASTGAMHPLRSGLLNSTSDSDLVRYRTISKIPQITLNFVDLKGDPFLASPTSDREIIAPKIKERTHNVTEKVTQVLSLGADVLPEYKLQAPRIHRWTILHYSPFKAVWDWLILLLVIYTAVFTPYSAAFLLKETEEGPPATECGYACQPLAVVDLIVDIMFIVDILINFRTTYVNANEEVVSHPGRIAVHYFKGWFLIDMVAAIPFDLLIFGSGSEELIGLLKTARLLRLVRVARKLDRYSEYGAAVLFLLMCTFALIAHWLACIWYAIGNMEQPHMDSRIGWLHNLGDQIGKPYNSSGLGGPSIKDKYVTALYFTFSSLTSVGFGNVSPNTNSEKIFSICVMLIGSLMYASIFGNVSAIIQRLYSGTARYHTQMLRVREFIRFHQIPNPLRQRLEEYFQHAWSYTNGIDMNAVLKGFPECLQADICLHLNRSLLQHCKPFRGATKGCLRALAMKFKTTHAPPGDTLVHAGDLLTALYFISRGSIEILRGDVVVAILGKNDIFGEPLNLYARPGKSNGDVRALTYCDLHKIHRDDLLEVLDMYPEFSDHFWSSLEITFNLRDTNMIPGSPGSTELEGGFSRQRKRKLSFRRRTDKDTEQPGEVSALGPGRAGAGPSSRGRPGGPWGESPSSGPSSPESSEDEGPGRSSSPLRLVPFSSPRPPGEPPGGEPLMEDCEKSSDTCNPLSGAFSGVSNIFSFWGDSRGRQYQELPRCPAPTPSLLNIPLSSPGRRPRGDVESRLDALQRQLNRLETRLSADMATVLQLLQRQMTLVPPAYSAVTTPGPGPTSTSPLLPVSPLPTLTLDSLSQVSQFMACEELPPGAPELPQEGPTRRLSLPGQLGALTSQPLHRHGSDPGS
D(2) dopamine receptor, sequence (P14416 whole entry): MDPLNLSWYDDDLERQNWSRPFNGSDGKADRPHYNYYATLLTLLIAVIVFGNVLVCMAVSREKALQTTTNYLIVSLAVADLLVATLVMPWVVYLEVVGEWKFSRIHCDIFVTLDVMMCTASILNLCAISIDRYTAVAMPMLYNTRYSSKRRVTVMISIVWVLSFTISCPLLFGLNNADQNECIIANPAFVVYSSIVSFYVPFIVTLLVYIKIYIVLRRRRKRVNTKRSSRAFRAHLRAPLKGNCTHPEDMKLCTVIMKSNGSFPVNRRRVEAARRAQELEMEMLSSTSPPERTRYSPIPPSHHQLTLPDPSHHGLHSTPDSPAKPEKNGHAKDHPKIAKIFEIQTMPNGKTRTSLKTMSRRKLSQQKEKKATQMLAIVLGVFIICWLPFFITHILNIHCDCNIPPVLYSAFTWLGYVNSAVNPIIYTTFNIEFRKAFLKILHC

Row | SMILES | Drug metabolism [2] [µmol/L] | Ki (D(1A) dopamine receptor [3]) [nM] | Ki (D(2) dopamine receptor) [nM] | Ki [8] [nM] | Ratio (D(1A) dopamine receptor [9]) | IC50 [1] [nM] | Occ [4] [%] | Occ [5] [%] | Occ50 [6] [nM] | Occ50 [7] [nM]
1 | Cc1ccc2c(c1)N=C(C1=C[C@H](C)N(C)CC1)c1ccccc1N2 |  |  | > 1400 |  |  |  |  |  |  | 
2 | Cc1ccc2c(c1)N=C(C1=C[C@H](C)N(C)CC1)c1cc(C)ccc1N2 |  |  | > 1400 |  |  |  |  |  |  | 
3 | OCCOCCN1CCN(C2=Nc3ccccc3Sc3ccccc32)CC1 [QUETIAPINE] |  |  |  |  |  |  | 30 | 12 |  | 
4 | Cc1cc2c(s1)Nc1ccccc1N=C2N1CCN(C)CC1 [OLANZAPINE] | 0.077 |  |  |  |  |  | 79 | 43 | 3.8 | 480
5 | Cc1nc2n(c(=O)c1CCN1CCC(c3noc4cc(F)ccc34)CC1)CCCC2 [RISPERIDONE] |  |  |  |  |  |  | 81 | 25 |  | 
6 | C[C@@H]1C=C(C2=Nc3cc(Cl)ccc3Nc3ccccc32)CCN1C | 0.84 | 780 | > 1400 |  |  |  |  |  |  | 
7 | CN1CC=C(C2=Nc3cc(Cl)ccc3Nc3ccccc32)CC1 | 0.21 | 380 | 1380 |  |  |  |  |  |  | 
8 | COc1ccc2c(c1)C(C1=C[C@H](C)N(C)CC1)=Nc1cc(C)ccc1N2 |  |  | > 1400 |  |  |  |  |  |  | 
9 | CCc1ccc2c(c1)C(C1=C[C@H](C)N(C)CC1)=Nc1ccccc1N2 | 0.86 | 4 | 167 |  |  | 600 |  |  |  | 
10 | Cc1ccc2c(c1)N=C(C1=C[C@H](C)N(C)CC1)c1cc(OC(F)(F)F)ccc1N2 |  | 2.4 | 1220 |  |  |  |  |  |  | 
11 | CN1CCN([C@@H]2C[C@@H](c3ccccc3)c3ccc(Cl)cc32)CC1(C)C [ZICRONAPINE] | 0 |  |  |  |  |  |  |  | 23 | 6.6
12 | CN1CCN(C2=Nc3cc(Cl)ccc3Nc3ccccc32)CC1 [CLOZAPINE] |  |  |  |  |  |  | 61 | 55 | 24.2 | 73.4
13 | CN1CCC(C2=Nc3cc(Cl)ccc3Nc3ccccc32)=CC1(C)C | 0.99 | 55 | 1180 |  |  |  |  |  |  | 
14 | C[C@H]1C=C(C2=Nc3cc(Cl)ccc3Nc3ccc(C#N)cc32)CCN1C | 0.49 | 1.1 | 135 |  |  | 600 |  |  |  | 
15 | Cc1ccc2c(c1)N=C(C1=C[C@H](C)N(C)CC1)c1cc(F)ccc1N2 | 0.25 | 5.5 | 453 |  |  | 1600 |  |  |  | 
16 | Cc1ccc2c(c1)C(C1=C[C@H](C)N(C)CC1)=Nc1ccccc1N2 | 0.85 | 7.9 | 819 |  |  |  |  |  |  | 
17 | C[C@H]1C=C(C2=Nc3cc(Cl)ccc3Nc3ccccc32)CCN1C | 1.3 | 51 | 479 |  |  |  |  |  |  | 

The remaining compounds from weak to strong by Ki (D(2) dopamine receptor), led by results:

Row | Drug metabolism [2] [µmol/L] | Ki (D(1A) dopamine receptor [3]) [nM] | Ki (D(2) dopamine receptor) [nM] | Ki [8] [nM] | Ratio (D(1A) dopamine receptor [9]) | SMILES | IC50 [1] [nM] | Occ [4] [%] | Occ [5] [%] | Occ50 [6] [nM] | Occ50 [7] [nM]
18 | 0.24 | 0.2 | 127 |  |  | C[C@H]1C=C(C2=Nc3cc(Cl)ccc3Nc3ccc(F)cc32)CCN1C | 1200 |  |  |  | 
19 | 0.67 | 1.6 | 124 |  |  | C[C@H]1C=C(C2=Nc3ccccc3Nc3ccc(Cl)cc32)CCN1C | 600 |  |  |  | 
20 | 0.58 | 2 | 110 | 0.14 |  | C[C@H]1C=C(C2=Nc3cc(Cl)ccc3Nc3ccc(OC(F)(F)F)cc32)CCN1C | 1900 |  |  |  | 
21 | 0.72 | 0.9 | 106 |  |  | C[C@H]1C=C(C2=Nc3cc(Cl)ccc3Nc3ccc(Cl)cc32)CCN1C | 900 |  |  |  | 
22 | 0.38 | 0.48 | 98 |  |  | Cc1ccc2c(c1)N=C(C1=C[C@H](C)N(C)CC1)c1cc(Cl)ccc1N2 | 1100 |  |  |  | 
23 | 0.89 | 2 | 69 |  |  | COc1ccc2c(c1)C(C1=C[C@H](C)N(C)CC1)=Nc1cc(Cl)ccc1N2 | 1500 |  |  |  | 
24 | 0.35 | 2.3 | 63 | 0.094 |  | Cc1ccc2c(c1)C(C1=C[C@H](C)N(C)CC1)=Nc1cc(Cl)ccc1N2 |  |  |  |  | 
25 | 0.77 | 3.7 | 47 | 0.091 | 10 | CCOc1ccc2c(c1)C(C1=C[C@H](C)N(C)CC1)=Nc1cc(Cl)ccc1N2 | 900 |  |  |  | 
26 | 0.53 | 1.4 | 28 | 0.094 | 10 | CCc1ccc2c(c1)C(C1=C[C@H](C)N(C)CC1)=Nc1cc(Cl)ccc1N2 | 1100 |  |  | 1 | 6
